In publication PMC5733301, “Antitubercular Nitroimidazoles Revisited: Synthesis and Activity of the Authentic 3-Nitro Isomer of Pretomanid” (ACS Medicinal Chemistry Letters, 2017):
Converted amounts (≈) assume the structure as drawn.

Experiments:
[1] = parameters: method as in PMID 23733467; details: MDR-TB patients; ref [14]; cited from earlier work
VERO cells = assay: Cytotoxicity against mammalian cells (VERO), 72 h assay; assay type: cell-based; details: Chlorocebus sabaeus, cytotoxicity toward VERO cells
M. tb (strain H37Rv) [2] = system: M. tb (strain H37Rv); parameters: method as in PMID 25781074; details: aerobic, growth inhibition ≥90%, ref [15]; cited from earlier work
M. tb (strain H37Rv) [3] = system: M. tb (strain H37Rv); parameters: method as in PMID 25781074; details: hypoxic, growth inhibition ≥90%, ref [15]; cited from earlier work
M. tb (strain H37Rv) [4] = assay: MABA, MIC against M. tb under aerobic conditions; assay type: cell-based, Mycobacterium tuberculosis
M. tb (strain H37Rv) [5] = assay: LORA, MIC against M. tb under hypoxic conditions (nonreplicating persistent bacteria); assay type: cell-based, Mycobacterium tuberculosis; details: vs 4 and 3
M. tb [6] = system: M. tb; parameters: method as in PMID 19209889; details: ref [22]; cited from earlier work
M. tb [7] = system: M. tb; parameters: method as in PMID 19209889; details: ref [22]; cited from earlier work; remark: listed apart in the source
[8] = system: Mycobacterium tuberculosis (M. tb); parameters: method as in PMID 19209889; details: vs 4; ref [22]; cited from earlier work

## Cc1ncc([N+](=O)[O-])n1CCO [MET, metronidazole]
[1]
  neurotoxicity in long-term use: too neurotoxic for long-term use

## O=[N+]([O-])c1cn2c(n1)OC[C@@H](OCc1ccc(OC(F)(F)F)cc1)C2 [compound 4, pretomanid]
VERO cells
  IC50: > 128 µM
M. tb (strain H37Rv) [2]
  MIC MABA: 0.50 ± 0.30 µM (≈ 0.18 µg/mL)
M. tb (strain H37Rv) [3]
  MIC LORA: 2.6 ± 1.4 µM (≈ 0.934 µg/mL)

## O=[N+]([O-])c1cnc2n1C[C@H](OCc1ccc(OC(F)(F)F)cc1)CO2 [compound 8]
M. tb (strain H37Rv) [4]; M. tb MIC vs 4
  loss in activity in comparison to its 2-nitro isomer, 4: > 256 fold

## Cc1cc(CO[C@@H]2COc3nc([N+](=O)[O-])cn3C2)ccc1OC(F)(F)F [compound 9]
M. tb (strain H37Rv) [4]; MABA, vs 4 and 6
  more active than both 4 and moxifloxacin (6) in MABA: seven- to eight-fold
M. tb (strain H37Rv) [4]; MABA, vs pretomanid
  more potent than pretomanid in the aerobic assay: eight-fold
M. tb (strain H37Rv) [5]
  better than both 4 and linezolid (3) in LORA: about three-fold

## O=[N+]([O-])c1cn2c(n1)O[C@H](COCc1ccc(OC(F)(F)F)cc1)C2 [compound 20]
M. tb [6]
  aerobic MIC99: 4 to 8 µM
M. tb [7]
  anaerobic MIC90: 31 µM
[8]
  less active than 4: 5- to 10 fold
